Assay results published in patent US11891365B2, “3-alkyl-4-amido-bicyclic [4,5,0] hydroxamic acids as HDAC inhibitors” (Valo Health, Inc., priority 2015, dated 2024).
pIC50: −log10 of the molar value.

Target: T1, Full length human recombinant HDAC6 protein (Homo sapiens, UniProt Q9UBN7)
T1 sequence (Q9UBN7 1-1215): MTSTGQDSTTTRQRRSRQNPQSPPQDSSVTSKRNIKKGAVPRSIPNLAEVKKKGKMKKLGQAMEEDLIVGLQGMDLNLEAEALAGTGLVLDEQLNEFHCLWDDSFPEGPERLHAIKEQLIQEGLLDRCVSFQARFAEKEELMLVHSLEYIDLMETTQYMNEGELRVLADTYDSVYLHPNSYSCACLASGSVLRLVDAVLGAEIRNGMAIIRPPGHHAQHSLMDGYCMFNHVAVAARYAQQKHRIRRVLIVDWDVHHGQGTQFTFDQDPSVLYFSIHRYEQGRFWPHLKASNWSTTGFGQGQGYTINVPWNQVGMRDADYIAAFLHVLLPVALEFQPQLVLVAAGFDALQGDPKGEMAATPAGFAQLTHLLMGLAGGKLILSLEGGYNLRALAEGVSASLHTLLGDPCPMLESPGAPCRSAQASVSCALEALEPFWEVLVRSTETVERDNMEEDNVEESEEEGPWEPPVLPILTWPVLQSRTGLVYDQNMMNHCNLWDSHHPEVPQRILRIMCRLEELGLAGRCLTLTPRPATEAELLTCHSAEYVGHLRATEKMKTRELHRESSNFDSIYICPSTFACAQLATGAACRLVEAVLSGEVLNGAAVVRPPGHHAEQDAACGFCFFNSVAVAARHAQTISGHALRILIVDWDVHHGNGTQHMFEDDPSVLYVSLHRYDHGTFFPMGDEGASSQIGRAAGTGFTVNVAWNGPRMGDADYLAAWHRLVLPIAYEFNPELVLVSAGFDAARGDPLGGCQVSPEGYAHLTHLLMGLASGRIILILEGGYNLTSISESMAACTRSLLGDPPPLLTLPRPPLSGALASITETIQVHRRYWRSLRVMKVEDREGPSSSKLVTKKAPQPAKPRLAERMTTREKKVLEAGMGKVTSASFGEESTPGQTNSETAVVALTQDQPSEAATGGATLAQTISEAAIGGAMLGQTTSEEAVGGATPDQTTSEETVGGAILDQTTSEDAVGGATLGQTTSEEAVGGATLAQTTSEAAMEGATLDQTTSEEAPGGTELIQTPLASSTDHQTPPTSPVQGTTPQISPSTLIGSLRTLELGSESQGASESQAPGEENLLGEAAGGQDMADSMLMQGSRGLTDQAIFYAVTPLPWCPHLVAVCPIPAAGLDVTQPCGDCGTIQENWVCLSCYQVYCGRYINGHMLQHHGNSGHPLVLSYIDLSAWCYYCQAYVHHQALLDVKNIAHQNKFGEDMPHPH
Assay: In vitro histone deacetylase assay: enzymatic HDAC6 electrophoretic mobility shift assay
Type: biochemical
Conditions: 1 nM enzyme, 2 μM peptide substrate RHKK(Ac)-NH2, 25° C., 12 concentrations; read-out: Inhibitory Concentration (IC50) Values against HDAC6, Activity Range

SMILES | pIC50
O=C(NO)c1ccc2c(c1)OCCN(C(=O)C1CC1c1ccccc1)C2 (stereo not drawn) [N-hydroxy-4-(2-phenylcyclopropane-1-carbonyl)-2,3,4,5-tetrahydrobenzo[f][1,4]oxazepine-8-carboxamide] | ≥ 7.00
CC1(C(=O)N2Cc3ccc(C(=O)NO)cc3O[C@@H](c3ccccc3)C2)CCC1 [(S)-N-hydroxy-4-(1-methylcyclobutane-1-carbonyl)-2-phenyl-2,3,4,5-tetrahydrobenzo[f][1,4]oxazepine-8-carboxamide] | ≥ 7.00
O=C(NO)c1ccc2c(c1)OCCN(C(=O)C1(c3ccccc3)CC1)C2 [N-hydroxy-4-(1-phenylcyclopropane-1-carbonyl)-2,3,4,5-tetrahydrobenzo[f][1,4]oxazepine-8-carboxamide] | ≥ 7.00
COc1ccc(C(C)(C)C(=O)N2CCOc3cc(C(=O)NO)ccc3C2)cc1OC [4-(2-(3,4-dimethoxyphenyl)-2-methylpropanoyl)-N-hydroxy-2,3,4,5-tetrahydrobenzo[f][1,4]oxazepine-8-carboxamide] | 6.30 to 7.00
COc1cccc(C(C)(C)C(=O)N2CCOc3cc(C(=O)NO)ccc3C2)c1 [N-hydroxy-4-(2-(3-methoxyphenyl)-2-methylpropanoyl)-2,3,4,5-tetrahydrobenzo[f][1,4]oxazepine-8-carboxamide] | 6.30 to 7.00
O=C(NO)c1ccc2c(c1)OCCN(C(=O)C1CCC1)C2 [4-(cyclobutanecarbonyl)-N-hydroxy-2,3,4,5-tetrahydrobenzo[f][1,4]oxazepine-8-carboxamide] | ≥ 7.00
COC1CCC(C(=O)N2Cc3ccc(C(=O)NO)cc3OC[C@@H]2C)CC1 (single isomer, unassigned) | ≥ 7.00
COCC1(C(=O)N2CCOc3cc(C(=O)NO)ccc3C2)CCC1 [N-hydroxy-4-(1-(methoxymethyl)cyclobutane-1-carbonyl)-2,3,4,5-tetrahydrobenzo[f][1,4]oxazepine-8-carboxamide] | ≥ 7.00
C[C@H]1COc2cc(C(=O)NO)ccc2CN1C(=O)[C@]1(C)CCCCO1 [(S)-N-hydroxy-3-methyl-4-((S)-2-methyltetrahydro-2H-pyran-2-carbonyl)-2,3,4,5-tetrahydrobenzo[f][1,4]oxazepine-8-carboxamide] | ≥ 7.00
O=C(NO)c1cnc2c(n1)OCCN(C(=O)C1CCOCC1)C2 [N-hydroxy-8-(tetrahydro-2H-pyran-4-carbonyl)-6,7,8,9-tetrahydropyrazino[2,3-f][1,4]oxazepine-3-carboxamide] | 6.30 to 7.00
CC(C(=O)N1CCOc2cc(C(=O)NO)ccc2C1)N1CCS(=O)(=O)CC1 (stereo not drawn) [4-(2-(1,1-dioxidothiomorpholino)propanoyl)-N-hydroxy-2,3,4,5-tetrahydrobenzo[f][1,4]oxazepine-8-carboxamide] | < 6.30
O=C(NO)c1ccc2c(c1)OCCN(C(=O)C1CC13CCNC3)C2 (stereo not drawn) [N-hydroxy-4-(5-azaspiro[2.4]heptane-1-carbonyl)-2,3,4,5-tetrahydrobenzo[f][1,4]oxazepine-8-carboxamide] | < 6.30
COCC1(C(=O)N2CCOc3cc(C(=O)NO)ccc3[C@@H]2C)CCOCC1 [(S)-N-hydroxy-4-(4-(methoxymethyl)tetrahydro-2H-pyran-4-carbonyl)-5-methyl-2,3,4,5-tetrahydrobenzo[f][1,4]oxazepine-8-carboxamide] | ≥ 7.00
CC(C)(C(=O)N1CCOc2cc(C(=O)NO)ccc2C1)c1cccs1 [N-hydroxy-4-(2-methyl-2-(thiophen-2-yl)propanoyl)-2,3,4,5-tetrahydrobenzo[f][1,4]oxazepine-8-carboxamide] | ≥ 7.00
C[C@H]1COc2cc(C(=O)NO)ccc2CN1C(=O)CCOC1CCOCC1 [(S)-N-hydroxy-3-methyl-4-(3-((tetrahydro-2H-pyran-4-yl)oxy)propanoyl)-2,3,4,5-tetrahydrobenzo[f][1,4]oxazepine-8-carboxamide] | 6.30 to 7.00
O=C(NO)c1ccc2c(c1)OCCN(C(=O)C1(c3ccc(F)cc3)CC1)C2 [4-(1-(4-fluorophenyl)cyclopropane-1-carbonyl)-N-hydroxy-2,3,4,5-tetrahydrobenzo[f][1,4]oxazepine-8-carboxamide] | ≥ 7.00
O=C(NO)c1ccc2c(c1)OCCN(C(=O)COc1cccc(Cl)c1)C2 [4-(2-(3-chlorophenoxy)acetyl)-N-hydroxy-2,3,4,5-tetrahydrobenzo[f][1,4]oxazepine-8-carboxamide] | 6.30 to 7.00

SMILES | pIC50
CC(=O)N1CCC(C(=O)N2CCOc3cc(C(=O)NO)ccc3C2)C1 (stereo not drawn) [4-(1-acetylpyrrolidine-3-carbonyl)-N-hydroxy-2,3,4,5-tetrahydrobenzo[f][1,4]oxazepine-8-carboxamide] | 6.30 to 7.00
O=C(NO)c1ccc2c(c1)OCCN(C(=O)C(c1ccccc1)n1cccn1)C2 (stereo not drawn) [N-hydroxy-4-(2-phenyl-2-(1H-pyrazol-1-yl)acetyl)-2,3,4,5-tetrahydrobenzo[f][1,4]oxazepine-8-carboxamide] | 6.30 to 7.00
C[C@@H]1c2ccc(C(=O)NO)cc2OCCN1C(=O)C1(C)CCC1 [(R)-N-hydroxy-5-methyl-4-(1-methylcyclobutane-1-carbonyl)-2,3,4,5-tetrahydrobenzo[f][1,4]oxazepine-8-carboxamide] | < 6.30
C[C@H]1COc2cc(C(=O)NO)ccc2CN1C(=O)C1CCC(OC(F)(F)F)CC1 (single isomer, unassigned) | ≥ 7.00
CC(=O)N1Cc2ccc(C(=O)NO)cc2OCC1(C)C [4-acetyl-N-hydroxy-3,3-dimethyl-2,3,4,5-tetrahydrobenzo[f][1,4]oxazepine-8-carboxamide] | 6.30 to 7.00
O=C(NO)c1ccc2c(n1)OCCN(C(=O)C1CCCCC1)C2 [4-(cyclohexanecarbonyl)-N-hydroxy-2,3,4,5-tetrahydropyrido[3,2-f][1,4]oxazepine-8-carboxamide] | 6.30 to 7.00
C[C@H]1COc2cc(C(=O)NO)ccc2CN1C(=O)[C@@H]1CCCCO1 [(S)-N-hydroxy-3-methyl-4-((S)-tetrahydro-2H-pyran-2-carbonyl)-2,3,4,5-tetrahydrobenzo[f][1,4]oxazepine-8-carboxamide] | ≥ 7.00
CC(C)[C@H]1COc2cc(C(=O)NO)ccc2CN1C(=O)C1(C)CCC1 [(S)-N-hydroxy-3-isopropyl-4-(1-methylcyclobutane-1-carbonyl)-2,3,4,5-tetrahydrobenzo[f][1,4]oxazepine-8-carboxamide] | ≥ 7.00
O=C(NO)c1ccc2c(c1)OC[C@H](C(F)(F)F)N(C(=O)C1CCOCC1)C2 [(R)-N-hydroxy-4-(tetrahydro-2H-pyran-4-carbonyl)-3-(trifluoromethyl)-2,3,4,5-tetrahydrobenzo[f][1,4]oxazepine-8-carboxamide] | ≥ 7.00
O=C(NO)c1ccc2c(c1)OCCN(C(=O)C1(c3ccccc3)CCOCC1)C2 [N-hydroxy-4-(4-phenyltetrahydro-2H-pyran-4-carbonyl)-2,3,4,5-tetrahydrobenzo[f][1,4]oxazepine-8-carboxamide] | 6.30 to 7.00
C[C@H]1COc2cc(C(=O)NO)ccc2CN1C(=O)c1nc2ccccc2[nH]1 [(S)-4-(1H-benzo[d]imidazole-2-carbonyl)-N-hydroxy-3-methyl-2,3,4,5-tetrahydrobenzo[f][1,4]oxazepine-8-carboxamide] | ≥ 7.00
O=C(NO)c1ccc2c(c1)OCCN(C(=O)C1CCCC13CCNC3)C2 (stereo not drawn) [N-hydroxy-4-(2-azaspiro[4.4]nonane-6-carbonyl)-2,3,4,5-tetrahydrobenzo[f][1,4]oxazepine-8-carboxamide] | 6.30 to 7.00
C[C@H]1COc2cc(C(=O)NO)ccc2CN1C(=O)C1CCCOCC1 (stereo partly drawn) [(3S)-N-hydroxy-3-methyl-4-(oxepane-4-carbonyl)-2,3,4,5-tetrahydrobenzo[f][1,4]oxazepine-8-carboxamide] | ≥ 7.00
O=C(NO)c1ccc2c(c1)OCCN(C(=O)C(O)(c1ccccc1)C1CCCC1)C2 (stereo not drawn) [4-(2-cyclopentyl-2-hydroxy-2-phenylacetyl)-N-hydroxy-2,3,4,5-tetrahydrobenzo[f][1,4]oxazepine-8-carboxamide] | < 6.30
CC(C(=O)N1CCOc2cc(C(=O)NO)ccc2C1)c1ccc(F)cc1 (stereo not drawn) [4-(2-(4-fluorophenyl)propanoyl)-N-hydroxy-2,3,4,5-tetrahydrobenzo[f][1,4]oxazepine-8-carboxamide] | 6.30 to 7.00
C[C@H]1COc2cc(C(=O)NO)ccc2CN1C(=O)C1CC2CCC(C1)O2 (stereo partly drawn) [(3S)-4-(8-oxabicyclo[3.2.1]octane-3-carbonyl)-N-hydroxy-3-methyl-2,3,4,5-tetrahydrobenzo[f][1,4]oxazepine-8-carboxamide] | ≥ 7.00
